Experimental data: US7741253B2, “Methods and compositions for crosslinking polymers with boronic acids” (Halliburton Energy Services, Inc., priority 2004, dated 2010)

Assay: pH titration (method of Wiskur et al.)
Format: physicochemical
Method: The exemplary boronic acid crosslinking agent prepared as described above was compared to 1,4-phenylene diboronic acid and boric acid using a pH titration that was performed according to the method of S. L. Wiskur, et al., Org.

Compound: OB(O)O [Boric acid]
- pH (NaOH 0 μL): 3.03
- pH (NaOH 1 μL): 3.13
- pH (NaOH 2 μL): 3.25
- pH (NaOH 3 μL): 3.4
- pH (NaOH 4 μL): 3.64
- pH (NaOH 5 μL): 4.06
- pH (NaOH 6 μL): 6.08
- pH (NaOH 7 μL): 7.58
- pH (NaOH 8 μL): 7.91
- pH (NaOH 9 μL): 8.11
- pH (NaOH 10 μL): 8.26
- pH (NaOH 11 μL): 8.39
- pH (NaOH 12 μL): 8.49
- pH (NaOH 13 μL): 8.59
- pH (NaOH 14 μL): 8.67
- pH (NaOH 15 μL): 8.74
- pH (NaOH 16 μL): 8.82
- pH (NaOH 17 μL): 8.89
- pH (NaOH 18 μL): 8.96
- pH (NaOH 19 μL): 9.03
- pH (NaOH 20 μL): 9.1
- pH (NaOH 21 μL): 9.17
- pH (NaOH 22 μL): 9.25
- pH (NaOH 23 μL): 9.31
- pH (NaOH 24 μL): 9.38
- pH (NaOH 25 μL): 9.47
- pH (NaOH 26 μL): 9.55
- pH (NaOH 27 μL): 9.65
- pH (NaOH 28 μL): 9.74
- pH (NaOH 29 μL): 9.85
- pH (NaOH 30 μL): 9.95
- pH (NaOH 31 μL): 10.05
- pH (NaOH 32 μL): 10.13
- pH (NaOH 33 μL): 10.22
- pH (NaOH 34 μL): 10.29
- pH (NaOH 35 μL): 10.35
- pH (NaOH 36 μL): 10.4
- pH (NaOH 37 μL): 10.45
- pH (NaOH 38 μL): 10.49
- pH (NaOH 39 μL): 10.53
- pH (NaOH 40 μL): 10.56
- pH (NaOH 41 μL): 10.59
- pH (NaOH 42 μL): 10.62
- pH (NaOH 43 μL): 10.65
- pH (NaOH 44 μL): 10.68
- pH (NaOH 45 μL): 10.7
- pH (NaOH 46 μL): 10.71
- pH (NaOH 47 μL): 10.75
- pH (NaOH 48 μL): 10.77
- pH (NaOH 49 μL): 10.78
- pH (NaOH 50 μL): 10.78
- pH (NaOH 51 μL): 10.81
- pH (NaOH 52 μL): 10.82
- pH (NaOH 53 μL): 10.82
- pH (NaOH 54 μL): 10.85
- pH (NaOH 55 μL): 10.85
- pH (NaOH 56 μL): 10.87
- pH (NaOH 57 μL): 10.87
- pH (NaOH 58 μL): 10.89
- pH (NaOH 59 μL): 10.89
- pH (NaOH 60 μL): 10.91
- pH (NaOH 61 μL): 10.92
- pH (NaOH 62 μL): 10.92
- pH (NaOH 63 μL): 10.92
- pH (NaOH 64 μL): 10.95
- pH (NaOH 65 μL): 10.95
- pH (NaOH 66 μL): 10.95
- pH (NaOH 67 μL): 10.97
- pH (NaOH 68 μL): 10.97
- pH (NaOH 69 μL): 11
- pH (NaOH 70 μL): 11
- pH (NaOH 71 μL): 11
- pH (NaOH 72 μL): 11
- pH (NaOH 73 μL): 11
- pH (NaOH 74 μL): 11
- pH (NaOH 75 μL): 11.03
- pH (NaOH 76 μL): 11.03
- pH (NaOH 77 μL): 11.03

Compound: OB(O)c1ccc(B(O)O)cc1 [1,4-phenylene diboronic acid]
- pH (NaOH 0 μL): 3.32
- pH (NaOH 1 μL): 3.47
- pH (NaOH 2 μL): 3.67
- pH (NaOH 3 μL): 4.07
- pH (NaOH 4 μL): 5.66
- pH (NaOH 5 μL): 6.6
- pH (NaOH 6 μL): 6.97
- pH (NaOH 7 μL): 7.18
- pH (NaOH 8 μL): 7.33
- pH (NaOH 9 μL): 7.44
- pH (NaOH 10 μL): 7.53
- pH (NaOH 11 μL): 7.62
- pH (NaOH 12 μL): 7.69
- pH (NaOH 13 μL): 7.76
- pH (NaOH 14 μL): 7.82
- pH (NaOH 15 μL): 7.88
- pH (NaOH 16 μL): 7.94
- pH (NaOH 17 μL): 8
- pH (NaOH 18 μL): 8.05
- pH (NaOH 19 μL): 8.11
- pH (NaOH 20 μL): 8.17
- pH (NaOH 21 μL): 8.21
- pH (NaOH 22 μL): 8.25
- pH (NaOH 23 μL): 8.39
- pH (NaOH 24 μL): 8.46
- pH (NaOH 25 μL): 8.51
- pH (NaOH 26 μL): 8.57
- pH (NaOH 27 μL): 8.64
- pH (NaOH 28 μL): 8.7
- pH (NaOH 29 μL): 8.76
- pH (NaOH 30 μL): 8.82
- pH (NaOH 31 μL): 8.96
- pH (NaOH 32 μL): 9.02
- pH (NaOH 33 μL): 9.09
- pH (NaOH 34 μL): 9.15
- pH (NaOH 35 μL): 9.21
- pH (NaOH 36 μL): 9.26
- pH (NaOH 37 μL): 9.32
- pH (NaOH 38 μL): 9.38
- pH (NaOH 39 μL): 9.43
- pH (NaOH 40 μL): 9.47
- pH (NaOH 41 μL): 9.51
- pH (NaOH 42 μL): 9.56
- pH (NaOH 43 μL): 9.6
- pH (NaOH 44 μL): 9.64
- pH (NaOH 45 μL): 9.68
- pH (NaOH 46 μL): 9.71
- pH (NaOH 47 μL): 9.75
- pH (NaOH 48 μL): 9.79
- pH (NaOH 49 μL): 9.82
- pH (NaOH 50 μL): 9.86
- pH (NaOH 51 μL): 9.89
- pH (NaOH 52 μL): 9.93
- pH (NaOH 53 μL): 9.96
- pH (NaOH 54 μL): 10
- pH (NaOH 55 μL): 10.03
- pH (NaOH 56 μL): 10.06
- pH (NaOH 57 μL): 10.1
- pH (NaOH 58 μL): 10.13
- pH (NaOH 59 μL): 10.16
- pH (NaOH 60 μL): 10.19
- pH (NaOH 61 μL): 10.23
- pH (NaOH 62 μL): 10.26
- pH (NaOH 63 μL): 10.28
- pH (NaOH 64 μL): 10.3
- pH (NaOH 65 μL): 10.33
- pH (NaOH 66 μL): 10.33
- pH (NaOH 67 μL): 10.37
- pH (NaOH 68 μL): 10.39
- pH (NaOH 69 μL): 10.42
- pH (NaOH 70 μL): 10.44
- pH (NaOH 71 μL): 10.47
- pH (NaOH 72 μL): 10.49
- pH (NaOH 73 μL): 10.49
- pH (NaOH 74 μL): 10.53
- pH (NaOH 75 μL): 10.55
- pH (NaOH 76 μL): 10.55
- pH (NaOH 77 μL): 10.57
